pIC50: −log10 of the molar value. ≈ marks a conversion by molar mass, not a printed value.
Experiments:
Botrytis cinerea = assay: 96-well microtiter fungal growth assay; format: cell-based;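 further: percent relative to untreated positive growth controls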
Text: (§1) Pathogen collection. Isolates of Colletotrichum acutatum Simmonds, Colletotrichum fragariae Brooks, and Colletotrichum gloeosporioides (Penz.) Penz. & Sacc. in Penz. were obtained from B. J. Smith, USDA, ARS, Small Fruit Research Station, Poplarville, Mass. Colletotrichum fragariae (isolate CF63), C. acutatum (isolate CAGoff), and C. gloeosporioides (isolate CG162) were used for all pathogen and bioautography studies. Isolate CF63 is one of the most virulent isolates at infecting strawberry plants and inducing both crown and fruit rot (Smith and Black, 1990). CF63, CAGoff, and CG162 were used as standard test isolates because of our extensive knowledge of these isolates and their known fungicide sensitivity profiles in both bioautography and microtiter formats. The three Colletotrichum species were isolated from strawberry (Fragaria xananassa Duchesne). Botrytis cinerea Pers.:Fr, was isolated from commercial grape (Vitis vinifera L.) and Fusarium oxysporum Schlechtend:Fr from orchid (Cynoches sp.) by David E. Wedge, USDA ARS Natural Products Utilization Research Unit. Phomopsis viticola (Sacc.) and P. obscurans (Ellis & Everh.) Sutton were from Mike A. Ellis, Ohio State University, Wooster, Ohio. Fungi were grown on potato-dextrose agar (PDA, Difco, Detroit Mich.) in 9 cm petri dishes and incubated in a growth chamber at 24±2° C. and under cool-white fluorescent lights ([…]·m^−2·sec^−1 light) with 12-h photoperiod.
(§2) Inoculum preparation. Conidia were harvested from 7–10 day-old cultures by flooding plates with 5 mL of sterile distilled water and dislodging conidia by softly brushing the colonies with an L-shaped glass rod. Conidial suspensions were filtered through sterile miracloth (Calbiochem-Novabiochem Corp., La Jolla Calif.) to remove mycelia. Conidia concentrations were determined photometrically, from a standard curve based on the absorbance at 625 nm and suspensions were then adjusted with sterile distilled water to a concentration of 1.0×10^6 conidia/mL.
(§3) Microtiter assay. A standardized 96-well microtiter plate assay developed for discovery of natural product fungicidal agents. A 96-well microtiter assay was used to determine sensitivity of B. cinerea, C. acutatum, C. fragariae, C. gloeosporioides, F. oxysporum, Phomopsis viticola, and P. obscurans to the various antifungal agents in comparison with known fungicidal standards. Vinclozolin, captan, and thiabendazole, which represent three different modes of action, were used as standards in this experiment. Each fungus was challenged in a dose-response format using test compounds where the final treatment concentrations were 0.3, 3.0 and 30.0 μM. Microtiter plates (Nunc MicroWell, untreated; Roskilde, Denmark) were covered with a plastic lid and incubated in a growth chamber at 24±1 C and 12 h photoperiod under 60±5 μmol light. Growth was then evaluated by measuring absorbance of each well at 620 nm using a microplate photometer (Packard Spectra Count, Packard Instrument Co., Downers Grove, Ill.).
(§4) Microbioassay Experimental Design. Chemical sensitivity of each fungus 96-well microtiter assay is used to determine sensitivity of B. cinerea, C. acutatum, C. fragariae, C. gloeosporioides, F. oxysporum, Phomopsis viticola, and P. obscurans. Each chemical is evaluated in duplicate at each dose (0.3, 3.0 and 30.0 μM) and repeated twice in time. Sixteen wells containing broth and inoculum serves as positive controls, eight wells containing solvent at the appropriate concentration and broth without inoculum are used as negative controls. Mean absorbance values and standard errors is used to evaluate fungal growth at 48 hrs and 72 hrs except for P. obscurans and P. viticola the data are recorded at 120 hrs. […] Treatments are arranged as a split-plot design replicated twice in time. Whole-plots were fungal isolates and sub-plots are chemicals. Each dose level and response time is analyzed separately. […]

Colletotrichum acutatum = assay: 96-well microtiter fungal growth assay; format: cell-based;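 further: percent relative to untreated positive growth controls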
Text: as §1, §2, §3, §4

Colletotrichum fragariae = assay: 96-well microtiter fungal growth assay; format: cell-based;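 further: percent relative to untreated positive growth controls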
Text: as §1, §2, §3, §4

[1] = system: Colletotrichum gloeosporioides; assay: 96-well microtiter fungal growth assay; format: cell-based;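 further: percent relative to untreated positive growth controls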
Text: as §1, §2, §3, §4

Fusarium oxysporum = assay: 96-well microtiter fungal growth assay; format: cell-based;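 further: percent relative to untreated positive growth controls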
Text: as §1, §2, §3, §4

Phomopsis obscurans = assay: 96-well microtiter fungal growth assay; format: cell-based
Text: as §1, §2, §3
(§5) Microbioassay Experimental Design. Chemical sensitivity of each fungus 96-well microtiter assay is used to determine sensitivity of B. cinerea, C. acutatum, C. fragariae, C. gloeosporioides, F. oxysporum, Phomopsis viticola, and P. obscurans. Each chemical is evaluated in duplicate at each dose (0.3, 3.0 and 30.0 μM) and repeated twice in time. Sixteen wells containing broth and inoculum serves as positive controls, eight wells containing solvent at the appropriate concentration and broth without inoculum are used as negative controls. […] Treatments are arranged as a split-plot design replicated twice in time. Whole-plots were fungal isolates and sub-plots are chemicals. Each dose level and response time is analyzed separately. The SAS system's analysis of variance procedure (Statistical Analysis System, Cary, N.C.) is used to identify significant factors and Fisher's protected LSD is used to separate means.

Phomopsis viticola = assay: 96-well microtiter fungal growth assay; format: cell-based;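 on Mean percent fungal growth inhibition of Phomopsis viticola: percent relative to untreated positive growth controls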
Text: as §1, §2, §3, §5

[2] = system: M. intracellulare ATCC 23068; assay: In vitro antibacterial assay (modified method of Franzblau, Alamar Blue); format: cell-based; settings: Mycobacterium intracellulare, ATCC23068, M. intracellulare ATCC 23068; for IC50: read-out: IC50 (50% inhibitory concentration); for MBC: read-out: MBC (Minimum Bactericidal Concentration)
[3] = system: Cryptococcus neoformans ATCC 90113; assay: In vitro antifungal susceptibility testing (modified NCCLS method); format: cell-based; settings: Cryptococcus neoformans, ATCC90113, Cr. neoformans ATCC 90113, Table 3; for IC50: read-out: IC50 (50% inhibitory concentration)
C. albicans ATCC 90028 = assay: In vitro antimicrobial assay (modified NCCLS), Candida media pH 4.5; format: cell-based, Candida albicans; settings: Candida albicans, ATCC90028, C. albicans ATCC 90028, pH 4.5, Table 3; for IC50: read-out: IC50 (50% inhibitory concentration); for MFC: read-out: MFC; for MIC: read-out: MIC
C. glabrata ATCC 90030 = assay: as above; format: cell-based, Candida glabrata; settings: Nakaseomyces glabratus, ATCC90030, C. glabrata ATCC 90030, pH 4.5; for IC50: read-out: IC50 (50% inhibitory concentration); for MIC: read-out: MIC
C. krusei ATCC 6258 = assay: as above; format: cell-based, Candida krusei; settings: Pichia kudriavzevii, ATCC6258; C. krusei ATCC 6258, pH 4.5; read-out: IC50 (50% inhibitory concentration)

O=C1C2CC=CCC2C(=O)N1SC(Cl)(Cl)Cl (stereo not shown) [Captan]
Mean percent fungal growth inhibition of Botrytis cinerea (Botrytis cinerea; 0.3 μm, 48 hrs): 3.1 ± 26.7%
Mean percent fungal growth inhibition of Botrytis cinerea (Botrytis cinerea; 0.3 μm, 72 hrs): 3.4 ± 5.8%
Mean percent fungal growth inhibition of Botrytis cinerea (Botrytis cinerea; 3.0 μm, 48 hrs): −45.9 ± 22.2%
Mean percent fungal growth inhibition of Botrytis cinerea (Botrytis cinerea; 3.0 μm, 72 hrs): −46.1 ± 5.6%
Mean percent fungal growth inhibition of Botrytis cinerea (Botrytis cinerea; 30 μm, 48 hrs): −76.4 ± 13.4%
Mean percent fungal growth inhibition of Botrytis cinerea (Botrytis cinerea; 30 μm, 72 hrs): −98.7 ± 0.9%
Mean percent fungal growth inhibition of Colletotrichum acutatum (Colletotrichum acutatum; 0.3 μm, 48 hrs): 42.5 ± 8.8%
Mean percent fungal growth inhibition of Colletotrichum acutatum (Colletotrichum acutatum; 0.3 μm, 72 hrs): 35.4 ± 6.1%
Mean percent fungal growth inhibition of Colletotrichum acutatum (Colletotrichum acutatum; 3.0 μm, 48 hrs): −98.0 ± 0.9%
Mean percent fungal growth inhibition of Colletotrichum acutatum (Colletotrichum acutatum; 3.0 μm, 72 hrs): −94.1 ± 3.0%
Mean percent fungal growth inhibition of Colletotrichum acutatum (Colletotrichum acutatum; 30 μm, 48 hrs): −98.6 ± 0.5%
Mean percent fungal growth inhibition of Colletotrichum acutatum (Colletotrichum acutatum; 30 μm, 72 hrs): −99.7 ± 0.2%
Mean percent fungal growth inhibition of Colletotrichum fragariae (Colletotrichum fragariae; 0.3 μm, 48 hrs): 18.1 ± 2.7%
Mean percent fungal growth inhibition of Colletotrichum fragariae (Colletotrichum fragariae; 0.3 μm, 72 hrs): −17.5 ± 15.6%
Mean percent fungal growth inhibition of Colletotrichum fragariae (Colletotrichum fragariae; 3.0 μm, 48 hrs): −96.2 ± 1.0%
Mean percent fungal growth inhibition of Colletotrichum fragariae (Colletotrichum fragariae; 3.0 μm, 72 hrs): −74.0 ± 9.3%
Mean percent fungal growth inhibition of Colletotrichum fragariae (Colletotrichum fragariae; 30 μm, 48 hrs): −99.7 ± 1.0%
Mean percent fungal growth inhibition of Colletotrichum fragariae (Colletotrichum fragariae; 30 μm, 72 hrs): −91.4 ± 5.2%
Mean percent fungal growth inhibition of Colletotrichum gloeosporoides ([1]; 0.3 μm, 48 hrs): 31.5 ± 7.3%
Mean percent fungal growth inhibition of Colletotrichum gloeosporoides ([1]; 0.3 μm, 72 hrs): 38.6 ± 4.5%
Mean percent fungal growth inhibition of Colletotrichum gloeosporoides ([1]; 3.0 μm, 48 hrs): −97.3 ± 1.5%
Mean percent fungal growth inhibition of Colletotrichum gloeosporoides ([1]; 3.0 μm, 72 hrs): −95.2 ± 1.9%
Mean percent fungal growth inhibition of Colletotrichum gloeosporoides ([1]; 30 μm, 48 hrs): −98.4 ± 0.5%
Mean percent fungal growth inhibition of Colletotrichum gloeosporoides ([1]; 30 μm, 72 hrs): −98.6 ± 1.7%
Mean percent fungal growth inhibition of Fusarium oxysporum (Fusarium oxysporum; 0.3 μm, 48 hrs): 13.6 ± 3.5%
Mean percent fungal growth inhibition of Fusarium oxysporum (Fusarium oxysporum; 0.3 μm, 72 hrs): 12.0 ± 2.2%
Mean percent fungal growth inhibition of Fusarium oxysporum (Fusarium oxysporum; 3.0 μm, 48 hrs): −50.0 ± 2.8%
Mean percent fungal growth inhibition of Fusarium oxysporum (Fusarium oxysporum; 3.0 μm, 72 hrs): −5.4 ± 4.4%
Mean percent fungal growth inhibition of Fusarium oxysporum (Fusarium oxysporum; 30 μm, 48 hrs): −99.4 ± 0.3%
Mean percent fungal growth inhibition of Fusarium oxysporum (Fusarium oxysporum; 30 μm, 72 hrs): −99.5 ± 0.4%
Percent change in fungal growth vs control (negative = inhibition) (Phomopsis obscurans; 0.3 μm, 120 hrs): −37.3 ± 6.6%
Percent change in fungal growth vs control (negative = inhibition) (Phomopsis obscurans; 0.3 μm, 144 hrs): −30.9 ± 6.3%
Percent change in fungal growth vs control (negative = inhibition) (Phomopsis obscurans; 3.0 μm, 120 hrs): −96.0 ± 1.8%
Percent change in fungal growth vs control (negative = inhibition) (Phomopsis obscurans; 3.0 μm, 144 hrs): −98.3 ± 0.6%
Percent change in fungal growth vs control (negative = inhibition) (Phomopsis obscurans; 30 μm, 120 hrs): −100 ± 0.0%
Percent change in fungal growth vs control (negative = inhibition) (Phomopsis obscurans; 30 μm, 144 hrs): −99.6 ± 0.2%
Mean percent fungal growth inhibition of Phomopsis viticola (Phomopsis viticola; 0.3 μm, 120 hrs): −118.5 ± 198.7%
Mean percent fungal growth inhibition of Phomopsis viticola (Phomopsis viticola; 3.0 μm, 120 hrs): −99.8 ± 38.2%
Mean percent fungal growth inhibition of Phomopsis viticola (Phomopsis viticola; 3.0 μm, 144 hrs): −95.7 ± 26.0%
Mean percent fungal growth inhibition of Phomopsis viticola (Phomopsis viticola; 30 μm, 120 hrs): −100.0 ± 0.0%
Mean percent fungal growth inhibition of Phomopsis viticola (Phomopsis viticola; 30 μm, 144 hrs): −67.8 ± 21.5%
pIC50 (Phomopsis viticola; Diaporthe ampelina, 72 h, read-out: IC50 (growth inhibition)): > 5.51

O=C(O)c1cn(C2CC2)c2cc(N3CCNCC3)c(F)cc2c1=O [CIP, ciprofloxacin, reference compound]
MIC [2]: 0.63 µg/mL (≈ 1.9 µM)
IC50 [2]: 0.3 µg/mL (≈ 0.905 µM)
MBC [2]: 1.25 µg/mL (≈ 3.77 µM)

COC(C)=C1C(=O)C=C(C)C1=O [Compound 6, 2-(1-methoxy-ethylidene)-4-methyl-cyclopent-4-ene-1,3-dione]
IC50 [3]: 5 µg/mL (≈ 30.1 µM)
IC50 (C. albicans ATCC 90028): 2 µg/mL (≈ 12 µM)
MFC (C. albicans ATCC 90028): 20 µg/mL (≈ 120 µM)
MIC (C. albicans ATCC 90028): 5 µg/mL (≈ 30.1 µM)
IC50 (C. glabrata ATCC 90030): 3.5 µg/mL (≈ 21.1 µM)
MIC (C. glabrata ATCC 90030): 5 µg/mL (≈ 30.1 µM)
IC50 (C. krusei ATCC 6258): 10 µg/mL (≈ 60.2 µM)

CCOC(/C=C/c1ccccc1)=C1/C(=O)C=C(C)C1=O [Compound 7]
IC50 [3]: 2 µg/mL (≈ 7.45 µM)
MIC ([3]; read-out: MIC): 20 µg/mL (≈ 74.5 µM)
IC50 (C. albicans ATCC 90028): 2 µg/mL (≈ 7.45 µM)
MFC (C. albicans ATCC 90028): 10 µg/mL (≈ 37.3 µM)
MIC (C. albicans ATCC 90028): 5 µg/mL (≈ 18.6 µM)
IC50 (C. glabrata ATCC 90030): 4.5 µg/mL (≈ 16.8 µM)
MFC (C. glabrata ATCC 90030; read-out: MFC): 20 µg/mL (≈ 74.5 µM)
MIC (C. glabrata ATCC 90030): 10 µg/mL (≈ 37.3 µM)
IC50 (C. krusei ATCC 6258): 8 µg/mL (≈ 29.8 µM)
MIC [2]: 20 µg/mL (≈ 74.5 µM)
IC50 [2]: 7.5 µg/mL (≈ 28 µM)
MBC [2]: 20 µg/mL (≈ 74.5 µM)

Reference: US7109380B2, “Cyclopentenedione antifungal compounds and methods for their use” (The University of Mississippi, priority 2004, dated 2006)
